# Laboratory results: patent US20230065562A1, “DUAL CONTROLS FOR THERAPEUTIC CELL ACTIVATION OR ELIMINATION” (Bellicum Pharmaceuticals, Inc., priority 2015, published 2023)
# Test system: CD123+ THP-1 tumor cells
# Assay: NSG tumor xenograft model, THP-1-EGFPluc, iMC-CD123.ζ-modified T cells with Rim
# Type: in vivo, mouse
# Details: costimulation by systemic rimiducid administration (1 mg/kg i.p. days 0 and 15)
# Protocol: Animal experiments: In vivo efficacy of iMC-CD123.ζ-modified T cells was assessed using an immune-deficient NSG tumor xenograft model. One million EGFPluc-expressing CD123^+ THP-1 tumor cells were injected i.v. into the animals, followed by a single i.v. injection on day 7 with varying non-transduced or iMC-CD123.ζ-modified T cells. Groups receiving CAR-T cells subsequently received i.p. injections of Rim (1 mg/kg) or vehicle only on days 0 and 15 post-T cell injection. Animals were evaluated for THP-1-EGFPluc tumor burden and weight change on a weekly basis using IVIS bioluminescent imaging (BLI) and for T cell persistence by flow cytometry and qPCR at day 30 post-T cell injection.
# FIG. 114. (A) PBMCs were activated and transduced with retrovirus including the CD123 iMC-CARζ vector. Twelve days after transduction, CAR expression was determined using anti-Q-bend10 antibody before injection into mice. […] (C) THP1-GFP.Fluc growth was measured using IVIS bioluminescence. (D, E) On day 30, mice were sacrificed and spleens were analyzed for the presence of CAR-T cells by flow cytometry and vector copy number assay.
# (B) On day 29, mice were sacrificed and spleens were analyzed for the presence of CAR-T cells by vector copy number assay.
structure (smiles),measurement,value
CC[C@H](C(=O)N1CCCC[C@H]1C(=O)O[C@H](CCc1ccc(OC)c(OC)c1)c1cccc(OCC(=O)NCCNC(=O)COc2cccc([C@@H](CCc3ccc(OC)c(OC)c3)OC(=O)[C@@H]3CCCCN3C(=O)[C@@H](CC)c3cc(OC)c(OC)c(OC)c3)c2)c1)c1cc(OC)c(OC)c(OC)c1 [rimiducid],eradication of CD123+ leukemic cells by iMC-CARζ T cells,efficiently eradicated
